In US11827628B2, “Compositions and methods for inhibition of the JAK pathway” (Rigel Pharmaceuticals, Inc., priority 2005, dated 2023):
Structures can show the parent of a compound that is named as a salt. Where two headings read alike, the source gives them in different places. Values belong to the compound of their own block, whether it stands above or below them.

Tests used:
[1] = test system: IL-4 stimulated expression of CD23 in human Ramos B cells (JAK-1 and JAK-3); experiment: Assay for Ramos B-Cell Line Stimulated with IL-4 (CD23 upregulation, FACS); assay type: cell-based; conditions: read-out: IC50, Example 41
Summary of the method: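 Read-out: anti-CD23-PE flow cytometry on Ramos B cells, giving IC50. Cells (5×10^4 per point, RPMI + 5% serum) get compound or DMSO for 1 h at 37 °C, then IL-4 50 units/mL final for 20-24 h.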

Primary human T-cells = experiment: Primary Human T-Cell Proliferation Assay Stimulated with IL-2 (CellTiter-Glo); assay type: cell-based; conditions: read-out: IC50, Example 42
Summary of the method: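 Peripheral blood T-cells pre-activated with anti-CD3/anti-CD28 and IL-2 were washed free of IL-2, then cultured with compound plus IL-2 for 72 hours at 37° C, duplicate wells. Viability read as ATP by CellTiter-Glo luminescence; IC50 reported.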

[2] = Homo sapiens, Ramos, Ramos B-cell line stimulated with IL-4, CD23 expression by FACS
[3] = Homo sapiens, T-cell, primary human T-cell proliferation stimulated with IL-2
[4] = Ramos B cells stimulated with IL-4, CD23 expression by FACS
[5] = primary human T-cells stimulated with IL-2, proliferation
[6] = Homo sapiens, Ramos, Ramos B cells stimulated with IL-4, CD23 expression by FACS
[7] = Homo sapiens, T-cell, primary human T-cells stimulated with IL-2, proliferation
[8] = Ramos B-cell line stimulated with IL-4, CD23 expression by FACS
[9] = primary human T-cell proliferation stimulated with IL-2

IC50 [1, 2]: 38.8 nM
Compound: Cc1ccc(Nc2ncc(F)c(Nc3ccc(OC4CCN(C)CC4)c(Cl)c3)n2)cc1S(N)(=O)=O [II-8, N2-(3-Aminosulfonyl-4-methylphenyl)-5-fluoro-N4-{3-chloro-4-[(1-methylpiperidin-4-yl)oxy]phenyl}-2,4-pyrimidinediamine]
IC50 (Primary human T-cells; [3]): 564 nM

IC50 [1, 4]: 624 nM
Compound: CCNC(=O)NCc1cccc(Nc2nc(Nc3ccc(C)c(S(N)(=O)=O)c3)ncc2F)c1 [III-118, N2-(3-aminosulfonyl-4-methyl)phenyl-N4-(3-ethylaminocarbonylaminomethyl)phenyl-5-fluoro-2,4-pyrimidinediamine]
IC50 (Primary human T-cells; [5]): 2290 nM

IC50 [1, 6]: 401 nM
Compound: Cc1ccc(Nc2ncc(F)c(Nc3ccc(Cl)c(C(F)(F)F)c3)n2)cc1S(N)(=O)=O [VI-39, N2-(3-Aminosulfonyl-4-methyl-phenyl)-N4-(4-chloro-3-trifluoromethylphenyl)-5-fluoro-2,4-pyrimidinediamine]
IC50 (Primary human T-cells; [7]): 3140 nM

IC50 [1, 4]: 772 nM
Compound: CC1(C)Oc2ccc(Nc3nc(Nc4cccc(S(N)(=O)=O)c4)ncc3N)cc2NC1=O [VII-39, 5-Amino-N2-(3-amionsulfonylphenyl)-N4-(2,2-dimethyl-3-oxo-4H-benz[1,4]oxazin-6-yl)-2,4-pyrimidinediamine]
IC50 (Primary human T-cells; [5]): 919 nM

IC50 ([1]; Ramos B-cell line stimulated with IL-4, CD23 expression by FACS, sodium salt): 2320 nM
Compound: CCC(=O)NS(=O)(=O)c1cc(Nc2ncc(F)c(Nc3ccc(OCC#N)c(F)c3)n2)ccc1C [Compound I-49, N4-(4-Cyanomethoxy-3-fluorophenyl)-5-fluoro-N2-(4-methyl-3-propionylaminosulfonylphenyl)-2,4-pyrimidinediamine Sodium Salt]
IC50 (Primary human T-cells; [3]): 5560 nM

IC50 [1, 2]: 1680 nM
Compound: NC(=O)NCc1ccc(Nc2nc(Nc3cccc(S(N)(=O)=O)c3)ncc2F)cc1 [III-33, N4-(4-Aminocarbonylaminomethylphenyl)-N2-(3-aminosulfonylphenyl)-5-fluoro-2,4-pyrimidinediamine]
IC50 (Primary human T-cells; [3]): 852 nM

IC50 [1, 4]: 1940 nM
Compound: Cc1ccc(Nc2ncc(F)c(Nc3ccc(C(=O)N4CCN(S(C)(=O)=O)CC4)cc3)n2)cc1S(N)(=O)=O [IX-30, N2-(3-Aminosulfonyl-4-methylphenyl)-5-fluoro-N4-[4-(1-methanesulfonyl-4-piperizinyl)carbonylphenyl]-2,4-pyrimidinediamine]
IC50 (Primary human T-cells; [5]): 6800 nM

IC50 [1, 2]: 196 nM
Compound: Cc1ccc(Nc2ncc(F)c(Nc3ccc(CCOC(=O)N(C)C)cc3)n2)cc1S(N)(=O)=O [III-56, N2-(3-Aminosulfonyl-4-methylphenyl)-N4-{4-[2-(dimethylaminocarbonyloxy)ethyl]phenyl}-5-fluoro-2,4-pyrimidinediamine]
IC50 (Primary human T-cells; [3]): 499 nM

IC50 [1, 8]: 3630 nM
Compound: CCC(=O)NS(=O)(=O)c1cc(Nc2ncc(F)c(Nc3ccc(CCC#N)c(Cl)c3)n2)ccc1C [III-29, N4-(3-Chloro-4-cyanoethylene-phenyl)-5-fluoro-N2-(4-methyl-3-propionylaminosulfonylphenyl)-2,4-pyrimidinediamine Sodium salt]
IC50 (Primary human T-cells; [9]): 12400 nM

IC50 [1, 4]: 342 nM
Compound: NS(=O)(=O)c1cc(Nc2ncc(F)c(Nc3ccc(C(F)(F)F)cc3)n2)ccc1Cl [VI-41, N2-(3-Aminosulfonyl-4-chlorophenyl)-5-fluoro-N4-(4-trifluorophenyl)-2,4-pyrimidinediamine]
IC50 (Primary human T-cells; [5]): 6240 nM

IC50 [1, 8]: 394 nM
Compound: CCC(=O)NCc1ccc(Nc2nc(Nc3cccc(S(N)(=O)=O)c3)ncc2F)cc1 [III-36, N2-(3-aminosulfonyl)phenyl-N4-(4-ethylcarbonylaminomethyl)phenyl-5-fluoro-2,4-pyrimidinediamine]
IC50 (Primary human T-cells; [9]): 382 nM

IC50 [1, 8]: 162 nM
Compound: Cc1cc(CCC#N)ccc1Nc1nc(Nc2cccc(S(N)(=O)=O)c2)ncc1F [III-26, N2-(3-Aminosulfonylphenyl)-N4-(4-cyanoethylene-2-methylphenyl)-5-fluoro-2,4-pyrimidinediamine]
IC50 (Primary human T-cells; [9]): 583 nM

IC50 [1, 6]: 68.5 nM
Compound: Cc1ccc(Nc2nc(Nc3cccc(S(N)(=O)=O)c3)ncc2F)cc1C#N [VI-99, N2-(3-Aminosulfonylphenyl)-N4-(3-cyano-4-methylphenyl)-5-fluoro-2,4-pyrimidinediamine]
IC50 (Primary human T-cells; [7]): 617 nM

IC50 [1, 6]: 146 nM
Compound: COc1ccc(Nc2nc(Nc3ccc(Cl)c(S(=O)(=O)NC(C)=O)c3)ncc2F)cc1Cl [VI-12, N2-[3-(N-Acetyl)aminosulfonyl-4-chlorophenyl]-N4-(3-chloro-4-methoxyphenyl)-5-fluoro-2,4-pyrimidinediamine]
IC50 (Primary human T-cells; [7]): 1310 nM

Compound: Cc1ccc(Nc2ncc(F)c(Nc3ccc(Cn4ccnc4C)cc3)n2)cc1S(N)(=O)=O [III-91, N2-(3-Aminosulfonyl-4-methylphenyl)-5-fluoro-N4-[4-(2-methyl-1-imidazolylmethyl)phenyl]-2,4-pyrimidinediamine]
IC50 [1, 4]: 143 nM
IC50 (Primary human T-cells; [5]): 467 nM

IC50 [1, 4]: 575 nM
Compound: N2-(3-Aminosulfonyl-4-methylphenyl)-N4-(4-ethylaminocarbonylaminomethylphenyl)-5-fluoro-2,4-pyrimidinedia [III-121]
IC50 (Primary human T-cells; [5]): 1020 nM

IC50 [1, 8]: 244 nM
Compound: N#CCC(=O)Nc1ccc(Nc2nc(Nc3cccc(S(N)(=O)=O)c3)ncc2F)cc1Cl [Compound I-82, N2-(3-Aminosulfonylphenyl)-N4-[3-chloro-4-(N-cyanoacetyl)aminophneyl]-5-fluoro-2,4-pyrimidinediamine]
IC50 (Primary human T-cells; [9]): 1380 nM

IC50 [1, 6]: 452 nM
Compound: NS(=O)(=O)c1cc(Nc2ncc(F)c(Nc3ccc(OC(F)(F)F)cc3)n2)ccc1Cl [VI-42, N2-(3-Aminosulfonyl-4-chlorophenyl)-5-fluoro-N4-(4-trifluoromethoxyphenyl)-2,4-pyrimidinediamine]
IC50 (Primary human T-cells; [7]): 6170 nM

IC50 [1, 8]: 443 nM
Compound: CCN(CC)CCNS(=O)(=O)c1ccc(Nc2ncc(F)c(Nc3ccc(Cn4ccnc4)cc3)n2)cc1 [III-84, N2-[4-(2-N,N-Diethylaminoethyl)aminosulfonylphenyl)-5-fluoro-N4-[4-(1-imidazolylmethyl)phenyl]-2,4-pyrimidinediamine]
IC50 (Primary human T-cells; [9]): 1900 nM

IC50 [1, 8]: 38.2 nM
Compound: NS(=O)(=O)c1cccc(Nc2ncc(F)c(Nc3ccc(OCc4ccncc4)cc3)n2)c1 [Compound I-193, N2-(3-Aminosulfonylphenyl)-5-fluoro-N4-[4-(4-pyridinyl)methyleneoxyphenyl]-2,4-pyrimidinediamine]
IC50 (Primary human T-cells; [9]): 55.6 nM

IC50 [1, 4]: 315 nM
Compound: NS(=O)(=O)c1cc(Nc2ncc(F)c(Nc3ccc(OCC(F)(F)F)cc3)n2)ccc1Cl [VI-48, N2-(3-Aminosulfonyl-4-chlorophenyl)-5-fluoro-N4-(4-trifluoromethylmethyleneoxyphenyl)-2,4-pyrimidinediamine]
IC50 (Primary human T-cells; [5]): 2240 nM

IC50 [1, 6]: 363 nM
Compound: Cc1ccc(Nc2ncc(F)c(Nc3ccc4ccccc4n3)n2)cc1S(N)(=O)=O [VII-64, N2-(3-Aminosulfonyl-4-methylphenyl)-5-fluoro-N4-(quinolin-2-yl)-2,4-pyrimidinediamine]
IC50 (Primary human T-cells; [7]): 3810 nM

IC50 [1, 8]: 147 nM
Compound: NS(=O)(=O)c1ccc(Nc2ncc(F)c(Nc3ccc(OCc4ccccn4)c(Cl)c3)n2)cc1 [Compound I-175, N2-(4-Aminosulfonylphenyl)-5-fluoro-N4-[4-(2-pyridinyl)-3-chloromethyleneoxyphenyl]-2,4-pyrimidinediamine]
IC50 (Primary human T-cells; [9]): 3080 nM

IC50 [1, 6]: 385 nM
Compound: Cc1ccc(Nc2ncc(F)c(Nc3cnc4ccccc4c3)n2)cc1S(N)(=O)=O [VII-65, N2-(3-Aminosulfonyl-4-methylphenyl)-5-fluoro-N4-(quinolin-3-yl)-2,4-pyrimidinediamine]
IC50 (Primary human T-cells; [7]): 3060 nM
